Laboratory results from ChEMBL document CHEMBL6087486, “Monomeric or Homodimer Conjugates of Fibroblast Activation Protein Inhibitor and Cyanine 7 Bearing a Meso-Chloride as Near-Infrared Fluorescence Probes: Design, Synthesis, and Comparative In Vivo Imaging of Distinct Breast Cancer Subtypes” (J Med Chem, 2025).
Calls of active or inactive are those of the source. The rule behind the calls is not given here.

Key:
[1] = system: MDA-MB-231; experiment: Cytotoxicity against human MDA-MB-231 cells at >25 uM after 24 hrs by CCK8 assay; format: functional, cell-based
[2] = system: MCF7; experiment: Cytotoxicity against human MCF7 cells at >25 uM after 24 hrs by CCK8 assay; format: functional, cell-based
[3] = Ratio of drug uptake in tumor to liver of NCG mouse xenografted with human MDA-MB-231 cells at 15 uM, iv measured after 48 hrs by IVIS analysis; format: ADME, organism-based; conditions: in vivo
[4] = Drug uptake in human MCF7 cells assessed as fold increase in fluorescence intensity at 2 uM incubated for 2 hrs by CLSM analysis relative to control; format: functional
[5] = Metabolic stability in mouse liver microsomes assessed as hepatic clearance rate; format: ADME, Microsome; conditions: read-out: CLH
[6] = system: MDA-MB-231; experiment: Cytotoxicity against human MDA-MB-231 cells at; format: functional, cell-based; conditions: dose < 2.0 µM, time 24.0 hrs
[7] = system: MCF7; experiment: Antitumor activity against human MCF7 cells xenografted in mouse assessed as decrease in tumor volume at 10 mg/kg, iv administered on days 1, 6, 11 and 16 measured on day 10; format: functional, organism-based; conditions: time 10.0 day
[8] = MRT (0 to t) in ICR mouse at 2 mg/kg, iv measured upto 24 hrs by LC-MS/MS analysis; format: ADME, organism-based; conditions: in vivo
[9] = AUC (0 to t) in ICR mouse at 2 mg/kg, iv measured upto 24 hrs by LC-MS/MS analysis; format: ADME, organism-based; conditions: in vivo
[10] = Clearance in ICR mouse at 2 mg/kg, iv measured upto 24 hrs by LC-MS/MS analysis; format: ADME, organism-based; conditions: in vivo
[11] = Biodistribution in tumor of NCG mouse xenografted with human MCF7 cells assessed as maximum fluorescence intensity at 15 uM, iv measured after 8 hrs by IVIS analysis; format: ADME, organism-based, Neoplasm; conditions: in vivo
[12] = Volume of distribution at steady state in ICR mouse at 2 mg/kg, iv measured upto 24 hrs by LC-MS/MS analysis; format: ADME, organism-based; conditions: in vivo, read-out: Vdss
[13] = Drug uptake in human MDA-MB-231 cells assessed as fold increase in fluorescence intensity at 2 uM incubated for 2 hrs by CLSM analysis relative to control; format: functional
[14] = Metabolic stability in human liver microsomes assessed as intrinsic clearance; format: ADME, Microsome; conditions: read-out: CLH
[15] = system: MDA-MB-231; experiment: Cytotoxicity against human MDA-MB-231 cells assessed as survival rate upto 20 uM after 24 hrs by CCK8 assay relative to control; format: functional; conditions: up to 20 µM
[16] = Biodistribution in tumor of NCG mouse xenografted with human MDA-MB-231 cells at 15 uM, iv measured for 24 hrs by IVIS analysis; format: ADME, organism-based, Neoplasm; conditions: in vivo
[17] = system: MCF7; experiment: Cytotoxicity against human MCF7 cells at 20 uM after 24 hrs by CCK8 assay relative to control; format: functional
[18] = Half life in ICR mouse at 2 mg/kg, iv measured upto 24 hrs by LC-MS/MS analysis; format: ADME, organism-based; conditions: in vivo
[19] = Metabolic stability in human liver microsomes assessed as half life; format: ADME, Microsome
[20] = Toxicity in mouse xenografted with human MCF7 cells assessed as change in body weight at 10 to 20 mg/kg, iv administered on days 1, 6, 11 and 16 measured for 21 days; format: organism-based; conditions: in vivo, 504 h, dose 10-20 mg/kg, time 21 day
[21] = system: MCF7; experiment: Antitumor activity against human MCF7 cells xenografted in mouse assessed as obvious effect at 10 to 20 mg/kg, iv administered on days 1, 6, 11 and 16 measured on day 21; format: functional, organism-based; conditions: dose 10-20 mg/kg, time 21.0 day
[22] = AUC (0 to infinity) in ICR mouse at 2 mg/kg, iv measured upto 24 hrs by LC-MS/MS analysis; format: ADME, organism-based; conditions: in vivo
[23] = system: MCF7; experiment: Antitumor activity against human MCF7 cells xenografted in mouse assessed as tumor shrinkage at 20 mg/kg, iv administered on days 1, 6, 11 and 16 measured on day 10; format: functional, organism-based; conditions: time 10.0 day
[24] = Biodistribution in liver of NCG mouse xenografted with human MDA-MB-231 cells at 15 uM, iv measured for 24 hrs by IVIS analysis; format: ADME, organism-based; conditions: in vivo
[25] = Metabolic stability in human liver microsomes assessed as hepatic clearance rate; format: ADME, Microsome; conditions: read-out: CLH
[26] = Absorption property of compound in methanol assessed as maximal wavelength at 0.5 to 4 uM by UV-vis spectrophotometry; format: physicochemical; conditions: dose 0.5-4 µM
[27] = Tlast in ICR mouse at 2 mg/kg, iv measured upto 24 hrs by LC-MS/MS analysis; format: ADME, organism-based; conditions: in vivo
[28] = Metabolic stability in mouse liver microsomes assessed as intrinsic clearance; format: ADME, Microsome; conditions: read-out: CLH
[29] = Emission property of compound in methanol assessed as maximal wavelength at 0.5 to 4 uM by […]; format: physicochemical; conditions: dose 0.5-4 µM
[30] = Ratio of drug uptake in tumor to liver of NCG mouse xenografted with human MCF7 cells at 15 uM, iv measured after 72 hrs by IVIS analysis; format: ADME, organism-based; conditions: in vivo
[31] = Biodistribution in tumor of NCG mouse xenografted with human MCF7 cells at 15 uM, iv measured after 1 to 2 hrs by IVIS analysis; format: ADME, organism-based, Neoplasm; conditions: in vivo, time 1-2 hrs
[32] = system: MCF7; experiment: Antitumor activity against human MCF7 cells xenografted in mouse assessed as tumor growth inhibition administered intravenously on days 1, 6, 11 and 16 measured on day 21; format: functional; conditions: dose 10-20 mg/kg, route iv, time 21.0 day
[33] = Biodistribution in tumor of NCG mouse xenografted with human MDA-MB-231 cells assessed as maximum fluorescence intensity at 15 uM, iv measured for 24 hrs by IVIS analysis; format: ADME, organism-based, Neoplasm; conditions: in vivo
[34] = Apparent volume of distribution in ICR mouse at 2 mg/kg, iv measured upto 24 hrs by LC-MS/MS analysis; format: ADME, organism-based; conditions: in vivo, read-out: Vz
[35] = C0 in ICR mouse at 2 mg/kg, iv measured upto 24 hrs by LC-MS/MS analysis; format: ADME, organism-based; conditions: in vivo
[36] = system: MCF7; experiment: Cytotoxicity against human MCF7 cells at; format: functional, cell-based; conditions: dose < 2.0 µM, time 24.0 hrs
[37] = Metabolic stability in mouse liver microsomes assessed as half life; format: ADME, Microsome
[38] = system: MCF7; experiment: Cytotoxicity against human MCF7 cells at >=5 uM after 24 hrs by CCK8 assay; format: functional, cell-based
[39] = MRT (0 to infinity) in ICR mouse at 2 mg/kg, iv measured upto 24 hrs by LC-MS/MS analysis; format: ADME, organism-based; conditions: in vivo
[40] = Biodistribution in liver of NCG mouse xenografted with human MCF7 cells at 15 uM, iv measured after 0.5 hrs by IVIS analysis; format: ADME, organism-based; conditions: in vivo
[41] = system: MCF7; experiment: Cytotoxicity against human MCF7 cells assessed as survival rate at 20 uM after 24 hrs by CCK8 assay relative to control; format: functional; conditions: read-out: Survival
[42] = Biodistribution in tumor of NCG mouse xenografted with human MCF7 cells at 15 uM, iv measured for 0.5 to 72 hrs by IVIS analysis; format: ADME, organism-based, Neoplasm; conditions: in vivo, time 0.5-72 hrs
[43] = Biodistribution in tumor of NCG mouse xenografted with human MDA-MB-231 cells 15 uM, iv measured upto 72 hrs by IVIS analysis; format: ADME, organism-based, Neoplasm; conditions: in vivo
[44] = Biodistribution in liver of NCG mouse xenografted with human MCF7 cells at 15 uM, iv measured after 4 hrs by IVIS analysis; format: ADME, organism-based; conditions: in vivo
[45] = Ratio of drug uptake in tumor to liver of NCG mouse xenografted with human MDA-MB-231 cells at 15 uM, iv measured upto 72 hrs by IVIS analysis; format: ADME, organism-based; conditions: in vivo
[46] = Biodistribution in tumor of NCG mouse xenografted with human MDA-MB-231 cells assessed as fluorescence intensity at 15 uM, iv measured after 4 hrs by IVIS analysis; format: ADME, organism-based, Neoplasm; conditions: in vivo
[47] = Biodistribution in tumor of NCG mouse xenografted with human MCF7 cells assessed as increase in retention time at 15 uM, iv measured for 0.5 to 72 hrs by IVIS analysis; format: ADME, organism-based, Neoplasm; conditions: in vivo, time 0.5-72 hrs
[48] = Biodistribution in tumor of NCG mouse xenografted with human MDA-MB-231 cells assessed as increase in retention time at 15 uM, iv measured for 0.5 to 72 hrs by IVIS analysis; format: ADME, organism-based, Neoplasm; conditions: in vivo, time 0.5-72 hrs
[49] = Biodistribution in tumor of NCG mouse xenografted with human MDA-MB-231 cells assessed as maximum fluorescence intensity at 15 uM, iv measured for 2 to 48 hrs by IVIS analysis; format: ADME, organism-based, Neoplasm; conditions: in vivo, time 2-48 hrs
[50] = system: MDA-MB-231; experiment: Cytotoxicity against human MDA-MB-231 cells assessed as survival rate at 20 uM after 24 hrs by CCK8 assay relative to control; format: functional; conditions: read-out: Survival

## CN(CCCN1CCN(C(=O)CN2CCN(CC(=O)O)CCN(CC(=O)O)CCN(CC(=O)O)CC2)CC1)c1ccc2nccc(C(=O)NCC(=O)N3CC(F)(F)C[C@H]3C#N)c2c1
[1]
  Activity: Active
[2]
  Activity: Active

## C#CCCCN1/C(=C/C=C2\CCCC(/C=C/C3=[N+](CCCc4cn(CCOCCOCCOCCOCCC(=O)N5CCN(CCCN(C)c6ccc7nccc(C(=O)NCC(=O)N8CC(F)(F)C[C@H]8C#N)c7c6)CC5)nn4)c4ccccc4C3(C)C)=C2Cl)C(C)(C)c2ccccc21
[3]
  Ratio: 4.47
[4]
  fold change (FC): 280
[5]
  CLint scaled: 1290 mL/min/kg
[6]
  Activity: inactive
[7]
  Activity: inactive
[8]
  MRT last at 24 h: 10.4 min
[9]
  AUC(0-t) at 24 h: 165 ng·h/mL
[10]
  clearance: 204 mL/min/kg
[11]
  Flu intensity: 6.13 10^7No_unit
[12]
  Vd: 2.45 L/kg
[13]
  fold change (FC): 431
[14]
  microsomal CLint: 253 µL/min/mg
[15]
  Survival: ~80%
[16]
  Drug uptake: Active
[17]
  Activity: 4.5%
[18]
  half-life: 12.5 min
[19]
  half-life: 5.5 min
[20]
  Activity: Non-toxic
[21]
  Activity: Active
[22]
  AUC(0-inf): 166 ng·h/mL
[23]
  Activity: Active
[24]
  Drug uptake: Not_active
[25]
  CLint scaled: 228 mL/min/kg
[26]
  Activity: 783 nm
[27]
  Tlast: 1.5 h
[28]
  microsomal CLint: 325 µL/min/mg
[29]
  Activity: 820 nm
[30]
  Ratio: 2.43
[31]
  Drug uptake: Active
[32]
  inhibition: Dose-dependent-effect
[33]
  Flu intensity: 8.43 10^7No_unit
[34]
  Vd: 3.92 L/kg
[35]
  C0 at 24 h: 829 ng/mL
[36]
  Activity: inactive
[37]
  half-life: 4.3 min
[38]
  Activity: Active
[39]
  MRT inf: 11.4 min
[40]
  Drug uptake: Not_active

## CN(CCCN1CCN(C(=O)CCOCCOCCOCCOCCn2cc(CCCN3/C(=C/C=C4\CCCC(/C=C/C5=[N+](CCCc6cn(CCOCCOCCOCCOCCC(=O)N7CCN(CCCN(C)c8ccc9nccc(C(=O)NCC(=O)N%10CC(F)(F)C[C@H]%10C#N)c9c8)CC7)nn6)c6ccccc6C5(C)C)=C4Cl)C(C)(C)c4ccccc43)nn2)CC1)c1ccc2nccc(C(=O)NCC(=O)N3CC(F)(F)C[C@H]3C#N)c2c1
[4]
  fold change (FC): 45
[41]
  viability at 20 µM: 60%
[5]
  CLint scaled: 1240 mL/min/kg
[6]
  Activity: inactive
[8]
  MRT last at 24 h: 36.2 min
[9]
  AUC(0-t) at 24 h: 3600 ng·h/mL
[10]
  clearance: 9 mL/min/kg
[42]
  Drug uptake: Active
[12]
  Vd: 0.583 L/kg
[13]
  fold change (FC): 81
[14]
  microsomal CLint: 430 µL/min/mg
[43]
  Drug uptake: Active
[44]
  Drug uptake: Not_active
[45]
  Ratio: > 3
[18]
  half-life: 690 min
[19]
  half-life: 3.2 min
[46]
  Flu intensity: > 2 10^8No_unit
[47]
  Drug uptake: Active
[22]
  AUC(0-inf): 3650 ng·h/mL
[25]
  CLint scaled: 387 mL/min/kg
[26]
  Activity: 784 nm
[27]
  Tlast: 24 h
[28]
  microsomal CLint: 313 µL/min/mg
[29]
  Activity: 823 nm
[30]
  Ratio: 2.07
[34]
  Vd: 9.15 L/kg
[35]
  C0 at 24 h: 16800 ng/mL
[36]
  Activity: inactive
[37]
  half-life: 4.4 min
[48]
  Drug uptake: Active
[49]
  Flu intensity: 2.5 10^8No_unit
[50]
  viability at 20 µM: 67%
[39]
  MRT inf: 63.6 min

## CN(CCCN1CCN(C(=O)OC(C)(C)C)CC1)c1ccc2nccc(C(=O)NCC(=O)N3CC(F)(F)C[C@H]3C#N)c2c1
[1]
  Activity: Active
[2]
  Activity: Active
